Patent US11548888B2, “KRas G12C inhibitors” (Mirati Therapeutics, Inc., priority 2019, dated 2023)

Target: T1, KRas G12C (Homo sapiens, UniProt P01116, G12C)
T1 construct: NCI-H358 cells (ATCC CRL-5807) express KRas G12C
Assay: Inhibition of KRas G12C-dependent cell growth: Phospho-ERK in NCI-H358 cells
Format: cell-based
Conditions: NCI-H358 cells expressing KRas G12C; Phospho-ERK (Thr202/Tyr204) normalized to GAPDH; 3 hours compound; 4 parameter fit
Summary of the method: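 NCI-H358 cells (KRas G12C) exposed to compounds for 3 h, 0.5% DMSO final. Fixed cells immunostained for pERK(Thr202/Tyr204) and GAPDH with infrared secondary antibodies. pERK normalized to GAPDH, expressed as percent of DMSO control; IC50 from 4-parameter dose-response fit.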

T1 sequence (P01116 1-188 isoform P01116-2 G12C): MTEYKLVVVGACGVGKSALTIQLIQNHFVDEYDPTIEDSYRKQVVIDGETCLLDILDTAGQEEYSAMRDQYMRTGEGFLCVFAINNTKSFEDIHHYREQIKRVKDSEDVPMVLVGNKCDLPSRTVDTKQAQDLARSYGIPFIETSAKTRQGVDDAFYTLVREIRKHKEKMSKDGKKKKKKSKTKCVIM

`C=CC(=O)N1CCC12CN(c1ncnc3c(F)c(-c4cccc5ccc(F)c(Cl)c45)ncc13)C2` [Example 246, 1-(6-(7-(8-chloro-7-fluoronaphthalen-1-yl)-8-fluoropyrido[4,3-d]pyrimidin-4-yl)-1,6-diazaspiro[3.3]heptan-1-yl)prop-2-en-1-one] was tested, and the IC50 was 6470 nM.

For `C=CC(=O)N1CC[C@@H]2[C@H]1CN2c1ncnc2c(F)c(-c3cccc4cccc(Cl)c34)ncc12` [Example 284], the IC50 was 557 nM.

`C=CC(=O)N1CCN(c2nc(OCCN3CCOCC3)nc3cc(-c4cc(O)cc5ccccc45)ncc23)CC1` [Example 4, 1-(4-(7-(3-hydroxynaphthalen-1-yl)-2-(2-morpholinoethoxy)pyrido[4,3-d]pyrimidin-4-yl)piperazin-1-yl)prop-2-en-1-one] showed an IC50 of 3430 nM.

`C=C(F)C(=O)N1CCN(c2nc(OC[C@@H]3[C@@H](F)CCN3C)nc3c(F)c(-c4cccc5ccc(F)c(Cl)c45)ncc23)C[C@@H]1CC#N` [Example 176] gave an IC50 of 30 nM.

`C=CC(=O)N1CC[C@@H]2[C@H]1CN2c1nc(OC[C@@H]2CCCN2C)nc2c(F)c(-c3cccc4ccc(F)c(Cl)c34)ncc12` [Example 239] gave an IC50 of 5 nM.

Compound `C#Cc1cccc2cc(O)cc(-c3ncc4c(N5C[C@@H]6[C@H]5CCN6C(=O)C=C)ncnc4c3F)c12` [Example 291, 1-((1R,5R)-6-(7-(8-ethynyl-3-hydroxynaphthalen-1-yl)-8-fluoropyrido[4,3-d]pyrimidin-4-yl)-2,6-diazabicyclo[3.2.0]heptan-2-yl)prop-2-en-1-one] has an IC50 of 2 nM.

Compound `C=CC(=O)N1CC[C@@H]2[C@H]1CN2c1nc(N(C)C)nc2c(F)c(-c3cccc4ccc(F)c(Cl)c34)ncc12` [Example 269] has an IC50 of 4490 nM.

In the case of `C=CC(=O)N1CCN(c2nc(N3CCC3)nc3c(F)c(-c4cccc5ccc(F)c(Cl)c45)ncc23)C[C@@H]1CC#N` [Example 187], the IC50 is reported as 74 nM.

Work on `C=CC(=O)N1CCN(c2ncnc3c(F)c(-c4cccc(Cl)c4C4CC4)ncc23)C[C@@H]1CC#N` [Example 241] yielded an IC50 of 111 nM.

`C=C(F)C(=O)N1CCN(c2nc(OCc3ccn[nH]3)nc3c(F)c(-c4cccc5ccc(F)c(Cl)c45)ncc23)C[C@@H]1CC#N` [Example 124] was tested, and the IC50 was 1770 nM.

`C=C(F)C(=O)N1CCN(c2nc(OCC3(C)COC3)nc3c(F)c(-c4cccc5ccc(F)c(Cl)c45)ncc23)C[C@@H]1CC#N` [Example 154] gave an IC50 of 221 nM.

`C=C(F)C(=O)N1CCN(c2nc(OCC3CN(C)C3)nc3c(F)c(-c4cccc5ccc(F)c(Cl)c45)ncc23)C[C@@H]1CC#N` [Example 127] was tested, and the IC50 was 243 nM.

Compound `C=C(F)C(=O)N1CCN(c2nc(OC[C@@H]3CCCN3C3CC3)nc3c(F)c(-c4cccc5ccc(F)c(Cl)c45)ncc23)C[C@@H]1CC#N` [Example 209] has an IC50 of 46 nM.

For `C=CC(=O)N1CCN(c2ncnc3c(F)c(-c4cccc5cc(Cl)ccc45)ncc23)CC1` [Example 257], the IC50 was 10000 nM.

Compound `C=CC(=O)N1CC2(C1)CN(c1ncnc3c(F)c(-c4cccc5ccc(F)c(Cl)c45)ncc13)C2` [Example 159] has an IC50 of 10000 nM.

In the case of `COC/C=C/C(=O)N1CCN(c2ncnc3c(F)c(-c4cccc5ccc(F)c(Cl)c45)ncc23)C[C@@H]1CC#N` [Example 110], the IC50 is reported as 725 nM.

For `C#Cc1cccc2cc(O)cc(-c3ncc4c(N5C[C@@H]6[C@H]5CCN6C(=O)C=C)nc(OC[C@@H]5CCCN5C)nc4c3F)c12` [Example 292, 1-((1R,5R)-6-(7-(8-ethynyl-3-hydroxynaphthalen-1-yl)-8-fluoro-2-(((S)-1-methylpyrrolidin-2-yl)methoxy)pyrido[4,3-d]pyrimidin-4-yl)-2,6-diazabicyclo[3.2.0]heptan-2-yl)prop-2-en-1-one], the IC50 was 20 nM.

Compound `COC/C=C/C(=O)N1CCN(c2nc(OC[C@@H]3CCCN3C)nc3c(F)c(-c4cccc5cccc(Cl)c45)ncc23)C[C@@H]1CC#N` [Example 78] has an IC50 of 13 nM.

`C/C=C/C(=O)N1CC[C@@H]2[C@H]1CN2c1ncnc2c(F)c(-c3cccc4ccc(F)c(Cl)c34)ncc12` [Example 260] was tested, and the IC50 was 10000 nM.

In the case of `C=CC(=O)N1CC[C@@H]2[C@H]1CN2c1nc(N)nc2c(F)c(-c3cccc4ccc(F)c(Cl)c34)ncc12` [Example 282], the IC50 is reported as 287 nM.

`C=CC(=O)N1CC[C@@H]2[C@H]1CN2c1nc(OC[C@@H]2CCCN2C)nc2c(F)c(-c3cc(O)cc4cccc(Cl)c34)ncc12` [Example 289, 1-((1R, 5R)-6-(7-(8-chloro-3-hydroxynaphthalen-1-yl)-8-fluoro-2-(((S)-1-methylpyrrolidin-2-yl)methoxy)pyrido[4,3-d]pyrimidin-4-yl)-2,6-diazabicyclo[3.2.0]heptan-2-yl)prop-2-en-1-one] showed an IC50 of 40 nM.

With `C=C(F)C(=O)N1CCN(c2nc(Oc3cccc4c3CCN(C)C4)nc3c(F)c(-c4cccc5ccc(F)c(Cl)c45)ncc23)C[C@@H]1CC#N` [Example 207] the IC50 was 6850 nM.

In the case of `C=C(F)C(=O)N1CCN(c2nc(OC[C@@H]3CCCN3C)nc3c(F)c(-c4cccc5ccc(F)c(F)c45)ncc23)C[C@@H]1CC#N` [Example 157], the IC50 is reported as 23 nM.

`C=CC(=O)N1CCN(c2ncnc3c(F)c(-c4cccc5ccc(F)c(Cl)c45)ncc23)C(CC#N)C1` (centres unmarked) [Example 150] was tested, and the IC50 was 10000 nM.

`C=CC(=O)N1CCN(c2ncnc3c(F)c(-c4cc(Cl)cc5ccccc45)ncc23)CC1` [Example 255] showed an IC50 of 10000 nM.

For `C=CC(=O)N1CCN(c2nc(OC[C@@H]3CCCN3C)nc3c(F)c(-c4cccc5ccc(F)c(Cl)c45)ncc23)CC1CF` (some centres unmarked) [Example 164], the IC50 was 153 nM.

Work on `C=CC(=O)N1CCN(c2nc(OC[C@@H]3CCCN3C)nc3c(F)c(-c4c(C)ccc5[nH]ncc45)ncc23)CC1` [Example 80] yielded an IC50 of 2520 nM.

With `CN1CCC[C@H]1COc1nc(N2CCN(C(=O)/C=C/CF)[C@@H](CC#N)C2)c2cnc(-c3cncc4cccc(Cl)c34)c(F)c2n1` [Example 90] the IC50 was 26 nM.

Work on `C=C(F)C(=O)N1CCN(c2nc(OC[C@@H]3CCCN3C)nc3c(F)c(-c4cc(O)cc5ccccc45)ncc23)C[C@@H]1CC#N` [Example 95] yielded an IC50 of 14 nM.

`C=C(F)C(=O)N1CCN(c2nc(OC[C@@H]3CCCN3C)nc3c(F)c(-c4cccc5ccccc45)ncc23)C[C@@H]1CC#N` [Example 8, 2-[(2S)-4-[8-fluoro-2-[[(2S)-1-methylpyrrolidin-2-yl]methoxy]-7-(1-naphthyl)pyrido[4,3-d]pyrimidin-4-yl]-1-(2-fluoroprop-2-enoyl)piperazin-2-yl]acetonitrile] was tested, and the IC50 was 132 nM.

In the case of `C=C(F)C(=O)N1CCN(c2nc(OC[C@@H]3CC(F)(F)CN3C)nc3c(F)c(-c4cccc5ccc(F)c(Cl)c45)ncc23)C[C@@H]1CC#N` [Example 210], the IC50 is reported as 49 nM.

Compound `C=CC(=O)N1CCN(c2nc(OC[C@@H]3CCCN3C)nc3c(F)c(-c4ccccc4F)ncc23)C[C@@H]1CC#N` [Example 60, 2-[(2S)-4-[8-fluoro-7-(2-fluorophenyl)-2-[[(2S)-1-methylpyrrolidin-2-yl]methoxy]pyrido[4,3-d]pyrimidin-4-yl]-1-prop-2-enoyl-piperazin-2-yl]acetonitrile] has an IC50 of 127 nM.

For `C=CC(=O)N1C[C@H](C)N(c2ncnc3c(F)c(-c4cccc5ccc(F)c(Cl)c45)ncc23)[C@@H](C)C1` [Example 148], the IC50 was 6280 nM.

`C=CC(=O)N1CCN(c2nc(OC[C@@H]3CCCN3C)nc3c(F)c(-c4c(C)ccc5[nH]ncc45)ncc23)[C@@H](C)C1` [Example 79] gave an IC50 of 675 nM.

In the case of `C=C(F)C(=O)N1CCN(c2nc(OC[C@@H]3[C@@H]4C[C@@H]4CN3C)nc3c(F)c(-c4cccc5ccc(F)c(Cl)c45)ncc23)C[C@@H]1CC#N` [Example 192], the IC50 is reported as 38 nM.
